Measurements as given in patent US20250092017A1, “2-PIPERIDYL OR 2-PYRAZOLYL SUBSTITUTED PYRIMIDINE COMPOUND SERVING AS EGFR INHIBITOR” (SUZHOU PUHE BIOPHARMA CO., LTD., priority 2022, published 2025).

Key:
[1] = target: T1, Ba/F3-TEL-EGFR-L858R-C797S (Homo sapiens, UniProt P00533, C797S/L858R, cells depend on it); test: CellTiter-Glo proliferation, Ba/F3-TEL-EGFR-L858R-C797S; format: cell-based; settings: 72 hours, read-out: Ba/F3-TEL-EGFR-L858R-C797S IC50/nM
T1 construct: fused on or other part: N-terminal TEL (ETV6) oligomerising part fused to the EGFR intracellular/kinase part; P41212 (Transcription factor ETV6)
T1 sequence (P00533 whole entry C797S/L858R, the tested form may be a part): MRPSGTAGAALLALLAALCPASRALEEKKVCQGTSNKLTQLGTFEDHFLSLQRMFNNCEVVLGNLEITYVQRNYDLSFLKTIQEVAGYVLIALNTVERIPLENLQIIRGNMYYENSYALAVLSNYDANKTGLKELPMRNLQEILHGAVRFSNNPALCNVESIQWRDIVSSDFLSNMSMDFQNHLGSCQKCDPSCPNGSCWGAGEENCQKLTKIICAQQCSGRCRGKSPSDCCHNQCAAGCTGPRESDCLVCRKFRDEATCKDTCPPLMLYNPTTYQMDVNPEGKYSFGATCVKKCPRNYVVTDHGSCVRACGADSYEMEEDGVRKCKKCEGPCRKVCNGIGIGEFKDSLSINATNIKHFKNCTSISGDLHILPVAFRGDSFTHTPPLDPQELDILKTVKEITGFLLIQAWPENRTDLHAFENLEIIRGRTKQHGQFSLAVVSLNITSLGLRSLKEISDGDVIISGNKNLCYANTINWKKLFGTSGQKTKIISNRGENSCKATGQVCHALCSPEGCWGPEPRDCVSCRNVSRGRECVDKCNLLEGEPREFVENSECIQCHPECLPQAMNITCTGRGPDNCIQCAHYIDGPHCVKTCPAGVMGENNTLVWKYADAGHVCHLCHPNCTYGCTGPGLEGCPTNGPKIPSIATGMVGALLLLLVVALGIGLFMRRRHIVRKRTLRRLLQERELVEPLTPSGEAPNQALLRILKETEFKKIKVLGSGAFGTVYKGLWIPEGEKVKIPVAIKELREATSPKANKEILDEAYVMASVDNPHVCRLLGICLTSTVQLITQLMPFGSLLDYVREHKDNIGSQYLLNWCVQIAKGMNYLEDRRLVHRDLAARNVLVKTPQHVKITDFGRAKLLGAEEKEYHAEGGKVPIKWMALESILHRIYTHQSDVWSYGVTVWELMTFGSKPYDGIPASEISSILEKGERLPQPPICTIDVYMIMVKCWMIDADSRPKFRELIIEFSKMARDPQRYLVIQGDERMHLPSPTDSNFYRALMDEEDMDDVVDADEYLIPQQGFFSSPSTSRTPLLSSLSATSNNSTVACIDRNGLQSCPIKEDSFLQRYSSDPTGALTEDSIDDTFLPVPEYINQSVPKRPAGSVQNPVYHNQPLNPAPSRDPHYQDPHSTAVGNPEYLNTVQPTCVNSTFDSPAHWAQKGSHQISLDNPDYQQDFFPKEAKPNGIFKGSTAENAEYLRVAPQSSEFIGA
Summary of the method: (§1)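 Ba/F3 lines dependent on the indicated EGFR variants were treated with compounds at a final DMSO concentration of 0.1% at 37 °C, 5% CO2. Viability was read by CellTiter-Glo luminescence, and inhibition rate was normalised to DMSO-treated cells (max) and medium-only wells (min). IC50 came from inhibition curves.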

[2] = target: EGFR (wild-type) (Homo sapiens, UniProt P00533); test: MSA (Mobility Shift Assay) kinase activity, EGFR wild type; format: biochemical; settings: read-out: EGFR wt/ IC50/nM
EGFR (wild-type), sequence (P00533 25-1210): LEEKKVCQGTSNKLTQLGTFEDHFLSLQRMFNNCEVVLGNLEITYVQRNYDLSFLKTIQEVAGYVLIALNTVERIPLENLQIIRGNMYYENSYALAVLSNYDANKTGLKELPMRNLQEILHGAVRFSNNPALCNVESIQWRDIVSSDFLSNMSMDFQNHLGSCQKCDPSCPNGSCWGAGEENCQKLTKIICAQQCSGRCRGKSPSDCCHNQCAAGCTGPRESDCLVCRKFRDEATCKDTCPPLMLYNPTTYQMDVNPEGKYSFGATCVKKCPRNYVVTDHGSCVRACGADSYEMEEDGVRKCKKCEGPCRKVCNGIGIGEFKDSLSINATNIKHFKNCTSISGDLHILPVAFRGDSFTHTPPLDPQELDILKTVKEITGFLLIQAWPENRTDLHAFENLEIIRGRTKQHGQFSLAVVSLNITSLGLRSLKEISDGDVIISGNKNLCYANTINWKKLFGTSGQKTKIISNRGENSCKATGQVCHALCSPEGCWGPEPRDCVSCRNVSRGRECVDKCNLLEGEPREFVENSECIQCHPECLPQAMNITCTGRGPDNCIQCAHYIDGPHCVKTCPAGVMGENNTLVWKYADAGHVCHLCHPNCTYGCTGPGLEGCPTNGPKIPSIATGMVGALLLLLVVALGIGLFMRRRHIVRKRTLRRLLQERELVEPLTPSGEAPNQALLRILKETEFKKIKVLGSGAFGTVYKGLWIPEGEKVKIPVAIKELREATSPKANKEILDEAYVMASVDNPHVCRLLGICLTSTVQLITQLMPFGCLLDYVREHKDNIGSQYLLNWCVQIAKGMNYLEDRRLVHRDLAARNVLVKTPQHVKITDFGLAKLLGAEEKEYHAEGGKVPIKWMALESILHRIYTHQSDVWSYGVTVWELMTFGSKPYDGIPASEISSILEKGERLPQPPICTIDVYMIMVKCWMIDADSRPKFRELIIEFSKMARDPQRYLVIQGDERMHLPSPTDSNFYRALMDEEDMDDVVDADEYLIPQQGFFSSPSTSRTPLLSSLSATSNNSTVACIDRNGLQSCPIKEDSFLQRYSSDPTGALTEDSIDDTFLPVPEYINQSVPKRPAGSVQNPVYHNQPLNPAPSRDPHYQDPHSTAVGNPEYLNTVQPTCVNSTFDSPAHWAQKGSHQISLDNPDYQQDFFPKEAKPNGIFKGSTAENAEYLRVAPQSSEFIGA
Summary of the method: (§2)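 Kinase preincubated with compound 10 min at room temperature, then reaction started with ATP plus substrate in 1x kinase buffer and run at room temperature. Substrate-to-product conversion read by mobility shift; % inhibition normalised to no-enzyme and no-compound controls, IC50 from variable-slope four-parameter fit.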

[3] = test system: Ba/F3-FL-EGFR-del19-C797S; test: CellTiter-Glo proliferation, Ba/F3-FL-EGFR-del19-C797S; format: cell-based; settings: 72 h, proliferation, 72 hours, CellTiter-Glo; read-out: Ba/F3-FL-EGFR-del19-C797S IC50/nM
Summary of the method: as §1

[4] = Liver microsome stability test, mouse; format: in vitro ADME; settings: mouse liver microsomes 0.5 mg/ml, compound 1 μM, NADPH 1 mM, within 60 minutes
Protocol: The compounds of the present disclosure were subjected to a liver microsome stability test. The compounds to be tested were co-incubated with liver microsomes of different species with or without the addition of NADPH. The final concentration of the compounds to be tested in the test system was 1 μM. The final concentration of NADPH was 1 mM, and the final concentration of liver microsomes was 0.5 mg/ml.

[5] = target: Ba/F3-FL-EGFR-L858R (Homo sapiens, UniProt P00533, L858R, cells depend on it); test: CellTiter-Glo proliferation, Ba/F3-FL-EGFR-L858R; format: cell-based; settings: 72 hours, read-out: Ba/F3-FL-EGFR-L858R IC50/nM
Summary of the method: as §1

[6] = target: Ba/F3-FL-EGFR-del19/T790M (Homo sapiens, UniProt P00533, DEL746-750/T790M, cells depend on it); test: CellTiter-Glo proliferation, Ba/F3-FL-EGFR-del19/T790M; settings: read-out: Ba/F3-FL-EGFR-del19/T790M IC50/nM, 72 hours
Ba/F3-FL-EGFR-del19/T790M, sequence (P00533 with tags, fused parts or gaps DEL746-750/T790M): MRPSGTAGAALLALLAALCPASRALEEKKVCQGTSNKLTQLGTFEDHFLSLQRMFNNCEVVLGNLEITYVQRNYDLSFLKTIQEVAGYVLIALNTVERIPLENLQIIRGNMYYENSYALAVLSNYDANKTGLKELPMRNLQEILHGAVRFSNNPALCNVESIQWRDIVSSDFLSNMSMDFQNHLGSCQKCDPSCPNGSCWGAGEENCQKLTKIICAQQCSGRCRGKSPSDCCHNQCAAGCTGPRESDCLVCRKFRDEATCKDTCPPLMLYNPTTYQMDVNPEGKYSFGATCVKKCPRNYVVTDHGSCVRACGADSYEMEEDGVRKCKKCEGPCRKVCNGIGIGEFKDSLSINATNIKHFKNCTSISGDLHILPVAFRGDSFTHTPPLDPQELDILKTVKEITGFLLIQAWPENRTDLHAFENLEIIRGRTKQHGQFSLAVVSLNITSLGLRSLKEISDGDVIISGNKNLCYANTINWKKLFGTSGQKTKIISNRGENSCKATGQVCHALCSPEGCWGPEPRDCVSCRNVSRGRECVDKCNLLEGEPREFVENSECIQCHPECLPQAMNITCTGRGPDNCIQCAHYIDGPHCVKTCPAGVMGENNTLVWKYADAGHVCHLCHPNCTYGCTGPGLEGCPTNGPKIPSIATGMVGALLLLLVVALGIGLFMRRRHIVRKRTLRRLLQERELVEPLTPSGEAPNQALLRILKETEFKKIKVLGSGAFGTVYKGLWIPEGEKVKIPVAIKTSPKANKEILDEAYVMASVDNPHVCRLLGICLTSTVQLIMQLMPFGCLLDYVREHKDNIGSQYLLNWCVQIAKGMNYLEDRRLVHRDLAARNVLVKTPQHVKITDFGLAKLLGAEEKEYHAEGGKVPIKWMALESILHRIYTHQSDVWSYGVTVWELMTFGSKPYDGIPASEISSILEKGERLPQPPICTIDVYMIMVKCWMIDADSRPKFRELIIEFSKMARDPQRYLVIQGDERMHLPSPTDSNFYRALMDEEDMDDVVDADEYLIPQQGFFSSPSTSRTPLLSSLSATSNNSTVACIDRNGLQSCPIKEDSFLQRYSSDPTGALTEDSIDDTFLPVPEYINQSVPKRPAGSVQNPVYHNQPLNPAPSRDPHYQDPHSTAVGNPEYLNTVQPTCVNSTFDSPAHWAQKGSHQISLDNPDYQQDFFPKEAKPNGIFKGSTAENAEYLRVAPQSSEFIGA

[7] = target: EGFR (L858R) (Homo sapiens, UniProt P00533, L858R); test: MSA (Mobility Shift Assay) kinase activity, EGFR-L858R; format: biochemical
EGFR (L858R), sequence (P00533 25-1210 L858R): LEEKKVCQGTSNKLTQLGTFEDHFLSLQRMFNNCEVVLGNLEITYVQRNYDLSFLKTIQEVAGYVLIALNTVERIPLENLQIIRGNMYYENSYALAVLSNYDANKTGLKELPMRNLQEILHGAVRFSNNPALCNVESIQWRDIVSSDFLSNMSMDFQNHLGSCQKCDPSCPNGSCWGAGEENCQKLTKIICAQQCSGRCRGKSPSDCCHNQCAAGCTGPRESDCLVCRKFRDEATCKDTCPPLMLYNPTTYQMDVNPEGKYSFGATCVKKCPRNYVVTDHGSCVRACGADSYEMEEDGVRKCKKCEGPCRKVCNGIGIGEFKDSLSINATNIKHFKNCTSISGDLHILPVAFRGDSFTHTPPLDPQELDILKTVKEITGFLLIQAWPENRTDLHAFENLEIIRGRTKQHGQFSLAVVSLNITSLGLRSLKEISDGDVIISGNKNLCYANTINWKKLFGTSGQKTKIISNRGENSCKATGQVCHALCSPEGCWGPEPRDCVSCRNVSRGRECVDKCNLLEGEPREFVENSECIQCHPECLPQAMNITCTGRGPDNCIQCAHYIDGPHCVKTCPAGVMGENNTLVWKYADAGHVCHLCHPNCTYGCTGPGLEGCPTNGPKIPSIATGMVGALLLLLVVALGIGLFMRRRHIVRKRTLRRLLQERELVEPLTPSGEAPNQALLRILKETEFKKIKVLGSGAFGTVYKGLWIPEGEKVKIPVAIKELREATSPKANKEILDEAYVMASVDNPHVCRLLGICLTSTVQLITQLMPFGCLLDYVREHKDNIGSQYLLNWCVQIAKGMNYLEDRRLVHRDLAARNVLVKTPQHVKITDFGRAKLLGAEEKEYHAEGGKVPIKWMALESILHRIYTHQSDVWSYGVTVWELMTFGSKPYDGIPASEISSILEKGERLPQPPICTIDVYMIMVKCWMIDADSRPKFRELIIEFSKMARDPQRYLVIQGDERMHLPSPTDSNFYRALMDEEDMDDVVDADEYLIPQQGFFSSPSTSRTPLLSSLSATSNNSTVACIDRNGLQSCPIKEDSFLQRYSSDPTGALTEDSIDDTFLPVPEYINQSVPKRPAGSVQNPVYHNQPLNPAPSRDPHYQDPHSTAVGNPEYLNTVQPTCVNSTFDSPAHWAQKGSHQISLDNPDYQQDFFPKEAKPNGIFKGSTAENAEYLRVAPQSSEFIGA
Summary of the method: as §2

[8] = test system: BaF3 (del19/T790M1C797S) tumor cells; test: In vivo efficacy assay in BALB/c nude mice, subcutaneous BaF3 tumor; settings: for TGI: based on final tumor volume
Protocol: In vivo efficacy assay in BALB/c nude mice. Details were as follows:
BaF3 (del19/T790M1C797S) tumor cells were cultured and inoculated into 6-8 weeks old female BALB/c nude mice (weighing about 20 g), with all mice being subcutaneously inoculated. The mice were cultured in an SPF-grade experimental environment, and all mice had free access to commercially certified standard diets. When the average tumor volume of the mice grew to about 150 mm^3, the test compound was orally administered daily. The dosage was as follows: blank group vehicle (DMSO/Solutol/H2O, 5/10/85). […] The tumor volume was measured three times a week with a two-dimensional caliper, and the animals were weighed every day. […] The volume calculation formula is: V=1/2a*b^2, where a represents the long diameter of the tumor, and b represents the short diameter of the tumor.

[9] = target: EGFR (L858R/T790M/C797S) (Homo sapiens, UniProt P00533, C797S/L858R/T790M); test: MSA (Mobility Shift Assay) kinase activity, EGFR-L858R-T790M-C797S; format: biochemical
Summary of the method: as §2

[10] = 100 mg/kg BID oral (50 mg/kg for the first 4 days, 100 mg/kg from the 5th day), after 13 days

| GI50 [1] | IC50 [2] | IC50 [3] | CLint scaled at 1 μM [4] | GI50 [5] | GI50 [6] | IC50 [7] | IC50 [9] | SMILES | Tumor volume (mm^3) [8, 10] | TGI [8, 10] | Tumor volume (mm^3) ([8]; 100 mg/kg, BID, oral, after 13 consecutive days of administration) | TGI ([8]; 100 mg/kg, BID, oral, after 13 consecutive days) |
| --- | --- | --- | --- | --- | --- | --- | --- | --- | --- | --- | --- | --- |
| 5.8 nM | 1.9 nM | 4.3 nM | 196 mL/min/kg | 7.7 nM | 5.1 nM | 0.51 nM | 0.43 nM | CC(C)c1ccc(N2C[C@H](CS(C)(=O)=O)[C@H]2C)c2cnc(Nc3ccnc(-c4cnn(S(=O)(=O)C5CC5)c4)n3)cc12 [Compound H12] | 1341 mm^3 | 68% | – | – |
| 14 nM | 9.4 nM | 52 nM | 231 mL/min/kg | 18 nM | 4.4 nM | 1.1 nM | 0.05 nM | CC(C)c1ccc(N2CC(N(C)S(C)(=O)=O)C2)c2cnc(Nc3ccnc(N4CC[C@@H](O)[C@@H](F)C4)n3)cc12 [Compound P39a] | – | – | 945 mm^3 | 79% |
